EP0238178B1, “Novel derivatives of erythromycylamine” (ELI LILLY AND COMPANY, priority 1986, dated 1987)
In brackets after ≈: the same amount, converted by molar mass.

What was measured:
[1] = tested on: Streptococcus sp. group D X66; experiment: MIC, standard agar-dilution assay; assay type: cell-based; conditions: Streptococcus sp. group D X66; read-out: MIC
[2] = tested on: Staphylococcus aureus X1.1; experiment: MIC, standard agar-dilution assay; assay type: cell-based; conditions: read-out: MIC
[3] = tested on: Staphylococcus aureus X400; experiment: MIC, standard agar-dilution assay; assay type: cell-based; conditions: Staphylococcus aureus X400, Methicillin-resistant strain, inducibly-resistant to erythromycin; read-out: MIC
From the text: (§1) In addition to excellent in vitro activity against erythromycin-sensitive bacteria, several members of this new series have shown in vitro activity against erythromycin-resistant strains. These include strains which are inducibly-resistant to erythromycin (S.. aureus V41 and X400 and S. epidermidis EPI1) and even strains which are constitutively-resistant (S. epidermidis 270).

[4] = tested on: Staphylococcus aureus V41; experiment: MIC, standard agar-dilution assay; assay type: cell-based; conditions: Staphylococcus aureus V41, Penicillin-resistant strain, inducibly-resistant to erythromycin; read-out: MIC
From the text: as §1

[5] = tested on: Staphylococcus epidermidis 270; experiment: MIC, standard agar-dilution assay; assay type: cell-based; conditions: Staphylococcus epidermidis 270, constitutively-resistant to erythromycin
From the text: as §1

[6] = tested on: Streptococcus pyogenes C203; experiment: MIC, standard agar-dilution assay; assay type: cell-based; conditions: read-out: MIC
[7] = tested on: Streptococcus pneumoniae Park I; experiment: MIC, standard agar-dilution assay; assay type: cell-based; conditions: read-out: MIC
[8] = tested on: Staphylococcus epidermidis 222; experiment: MIC, standard agar-dilution assay; assay type: cell-based; conditions: read-out: MIC
[9] = tested on: Haemophilus influenzae C.L.; experiment: MIC, standard agar-dilution assay; assay type: cell-based; conditions: Ampicillin-sensitive strain, read-out: MIC
Escherichia coli EC14 = experiment: MIC, standard agar-dilution assay; assay type: cell-based; conditions: read-out: MIC
[10] = tested on: Streptococcus sp. group D 2041; experiment: MIC, standard agar-dilution assay; assay type: cell-based; conditions: read-out: MIC
[11] = tested on: Staphylococcus aureus S13E; experiment: MIC, standard agar-dilution assay; assay type: cell-based
Staphylococcus aureus = experiment: Experimental bacterial infection in mice, ED50; assay type: in vivo; conditions: Staphylococcus aureus, po, two doses, dose protecting 50% of animals, read-out: Oral ED50
Method: (§2) The new derivatives of this invention have also shown in vivo antimicrobial activity against experimental bacterial infections. When two doses of test compound were administered to mice in experimental infections, the activity observed was measured as an EDso value [effective dose in mg/kg to protect 50% of the test animals: see Warren Wick, et al., J. Bacteriol. 81, 233-235 (1961)].

Streptococcus pyogenes = experiment: Experimental bacterial infection in mice, ED50; assay type: in vivo; conditions: Streptococcus pyogenes, po, two doses, dose protecting 50% of animals, read-out: Oral ED50
Method: as §2

Streptococcus pneumoniae = experiment: Experimental bacterial infection in mice, ED50; assay type: in vivo; conditions: Streptococcus pneumoniae, po, two doses, dose protecting 50% of animals, read-out: Oral ED50
Method: as §2

| SMILES | MIC [1] | MIC [2] | MIC [3] | MIC [4] | MIC [5] | MIC [6] | MIC [7] | MIC [8] | MIC [9] | MIC (Escherichia coli EC14) | MIC [10] | MIC [11] | ED50 (Staphylococcus aureus) | ED50 (Streptococcus pyogenes) | ED50 (Streptococcus pneumoniae) |
| --- | --- | --- | --- | --- | --- | --- | --- | --- | --- | --- | --- | --- | --- | --- | --- |
| CCCCC/C=C\CCCN[C@@H]1[C@H](C)[C@@H](O)[C@](C)(O)[C@@H](CC)OC(=O)[C@H](C)[C@@H](O[C@H]2C[C@@](C)(OC)[C@@H](O)[C@H](C)O2)[C@H](C)[C@@H](O[C@@H]2O[C@H](C)C[C@H](N(C)C)[C@H]2O)[C@](C)(O)C[C@H]1C [Compound 13] | 0.06 µg/mL (≈ 0.0687 µM) | 0.25 µg/mL (≈ 0.286 µM) | 8 µg/mL (≈ 9.16 µM) | 8 µg/mL (≈ 9.16 µM) | 32 µg/mL (≈ 36.6 µM) | < 0.008 µg/mL | < 0.008 µg/mL | 0.125 µg/mL (≈ 0.143 µM) | 2 µg/mL (≈ 2.29 µM) | 128 µg/mL (≈ 147 µM) | 1 µg/mL (≈ 1.15 µM) | 0.25 µg/mL (≈ 0.286 µM) |  |  |  |
| CCCCC/C=C/CCCN[C@@H]1[C@H](C)[C@@H](O)[C@](C)(O)[C@@H](CC)OC(=O)[C@H](C)[C@@H](O[C@H]2C[C@@](C)(OC)[C@@H](O)[C@H](C)O2)[C@H](C)[C@@H](O[C@@H]2O[C@H](C)C[C@H](N(C)C)[C@H]2O)[C@](C)(O)C[C@H]1C [Compound 14, 9-Deoxo-9-[(trans-dec-4-enyl)amino]erythromycin] | 0.125 µg/mL (≈ 0.143 µM) | 0.5 µg/mL (≈ 0.573 µM) | 16 µg/mL (≈ 18.3 µM) | 8 µg/mL (≈ 9.16 µM) | 32 µg/mL (≈ 36.6 µM) | < 0.008 µg/mL | < 0.008 µg/mL | 0.25 µg/mL (≈ 0.286 µM) | 2 µg/mL (≈ 2.29 µM) | 128 µg/mL (≈ 147 µM) | 2 µg/mL (≈ 2.29 µM) | 0.25 µg/mL (≈ 0.286 µM) |  |  |  |
| CC[C@H]1OC(=O)[C@H](C)[C@@H](O[C@H]2C[C@@](C)(OC)[C@@H](O)[C@H](C)O2)[C@H](C)[C@@H](O[C@@H]2O[C@H](C)C[C@H](N(C)C)[C@H]2O)[C@](C)(O)C[C@@H](C)[C@H](NCC#Cc2ccccc2)[C@H](C)[C@@H](O)[C@]1(C)O [Compound 18] | 0.25 µg/mL (≈ 0.294 µM) | 1 µg/mL (≈ 1.18 µM) | 32 µg/mL (≈ 37.7 µM) | 16 µg/mL (≈ 18.8 µM) | 64 µg/mL (≈ 75.4 µM) | < 0.008 µg/mL | < 0.008 µg/mL | 0.5 µg/mL (≈ 0.589 µM) | 4 µg/mL (≈ 4.71 µM) |  | 1 µg/mL (≈ 1.18 µM) | 0.5 µg/mL (≈ 0.589 µM) | > 50 mg/kg | 26.7 mg/kg | 33.9 mg/kg |
